Results from ChEMBL document CHEMBL3137667, “[Drug-induced liver injury; fourteenth updated edition of the bibliographic database of liver injuries and related drugs]” (Gastroenterol Clin Biol, 2004).

How the values were obtained:
[1] = Highest frequency of moderate liver toxicity observed during clinical trials, expressed as a percentage. [column '% BIOL' in source]; conditions: human
[2] = human, serum
[3] = human, serum, 4383 h
[4] = human
[5] = human; remark: listed apart in the source
[6] = human; remark: listed apart in the source
[7] = human; remark: listed apart in the source
[8] = human; remark: listed apart in the source
[9] = human, serum; remark: listed apart in the source
[10] = human; remark: listed apart in the source
[11] = human; remark: listed apart in the source
[12] = Times to onset, minimal and maximal, observed in the indexed observations. [column 'DELAI' in source]; conditions: human
[13] = Highest frequency of acute liver toxicity observed during clinical trials, expressed as a percentage. [column '% AIGUE' in source]; conditions: human
[14] = human; remark: listed apart in the source
[15] = human; remark: listed apart in the source
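Throughout, for Hepatotoxicity (association with vascular disease): count of indexed literature references reporting vascular liver injury in humans, e.g. peliosis hepatitis, hepatic veno-occlusive disease or Budd-Chiari syndrome.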
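Throughout, for Hepatotoxicity (benign tumour): value is a count of indexed literature references citing a benign tumour confirmed by histopathology.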
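Throughout, for Hepatotoxicity (choleostasis): human cholestatic liver injury, shown by histopathology or by peak ALT or AST elevation over alkaline phosphatase ratio below 2, value counts indexed literature reports.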
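Throughout, for Hepatotoxicity (chronic liver disease): chronic liver injury confirmed by histopathology or persistently raised serum aminotransferase activity beyond 6 months, value given as the count of indexed literature references.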
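Throughout, for Hepatotoxicity (cirrhosis): value is a count of indexed literature references reporting cirrhosis confirmed by histopathology.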
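Throughout, for Hepatotoxicity (cytolytic): human cytolytic liver injury, shown by histopathology or by a ratio above 5 of peak ALT or AST elevation to alkaline phosphatase elevation, value counts indexed references.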
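Throughout, for Hepatotoxicity (granulomatous hepatitis): value is a count of indexed literature references reporting granulomatous liver disease confirmed by histopathology.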
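Throughout, for Hepatotoxicity (malignant tumour): malignant tumour confirmed by histopathology, value gives the count of indexed literature references reporting it.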
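Throughout, for Hepatotoxicity (severe hepatitis): human clinical data: severe hepatitis, meaning potentially life-threatening liver failure or clinically observed cases, the value counts how many indexed literature references report it.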
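Throughout, for Hepatotoxicity (steatosis): steatosis confirmed by histopathology, value is the count of indexed references.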

| Compound | Hepatotoxicity (moderate) [1] [%] | Hepatotoxicity (acute) [2] | Hepatotoxicity (chronic liver disease) [3] | Hepatotoxicity (choleostasis) [4] | Hepatotoxicity (cirrhosis) [5] | Hepatotoxicity (steatosis) [6] | Hepatotoxicity (severe hepatitis) [7] | Hepatotoxicity (granulomatous hepatitis) [8] | Hepatotoxicity (moderate) [9] | Hepatotoxicity (benign tumour) [10] | Hepatotoxicity (cytolytic) [11] | Hepatotoxicity (time to onset) [12] | Hepatotoxicity (acute) [13] [%] | Hepatotoxicity (association with vascular disease) [14] | Hepatotoxicity (malignant tumour) [15] |
| --- | --- | --- | --- | --- | --- | --- | --- | --- | --- | --- | --- | --- | --- | --- | --- |
| CCN(CC)CCOc1ccc(C(=C(Cl)c2ccccc2)c2ccccc2)cc1 [CLOMIPHENE] | 0 | 2 | 0 | 1 | 0 | 0 | 0 | 0 | 1 | 1 | 1 | 2 weeks - 8 years | 0 | 0 | 1 |
| Clc1ccccc1C(c1ccccc1)(c1ccccc1)n1ccnc1 [CLOTRIMAZOLE] | 40 | 0 | 0 | 0 | 0 | 0 | 0 | 0 | 8 | 0 | 0 | 17 days | 0 | 0 | 0 |
| C1CC1 [CYCLOPROPANE] | 0 | 3 | 0 | 0 | 0 | 0 | 2 | 0 | 0 | 0 | 3 | 1 day - 2 weeks | 0 | 0 | 0 |
| N[C@@H]1CON=C1O [CYCLOSERINE] | 13 | 2 | 0 | 0 | 0 | 0 | 1 | 0 | 3 | 0 | 2 | 11 weeks | 5.4 | 0 | 0 |
| Cc1c(O)c(=O)ccn1C [DEFERIPRONE] | 59.5 | 1 | 0 | 0 | 0 | 0 | 0 | 0 | 8 | 0 | 1 | 3 months | 1.2 | 0 | 0 |
| CC(=O)N(O)CCCCCNC(=O)CCC(=O)N(O)CCCCCNC(=O)CCC(=O)N(O)CCCCCN [DEFEROXAMINE] | 28 | 1 | 0 | 0 | 0 | 0 | 1 | 0 | 1 | 0 | 1 | 6 weeks | 0 | 0 | 0 |
| CNCCON=c1c2ccccc2ccc2ccccc12 [DEMEXIPTILINE] | 0 | 1 | 0 | 1 | 0 | 0 | 0 | 0 | 0 | 0 | 1 | 6 weeks | 0 | 0 | 0 |
| NC(=O)CC[C@@H]1NC(=O)[C@H](Cc2ccccc2)NC(=O)[C@H](Cc2ccc(O)cc2)NC(=O)CCSSC[C@@H](C(=O)N2CCC[C@H]2C(=O)N[C@H](CCCN=C(N)N)C(=O)NCC(N)=O)NC(=O)[C@H](CC(N)=O)NC1=O [DESMOPRESSIN] | 20 | 0 | 0 | 0 | 0 | 0 | 0 | 0 | 2 | 0 | 0 | 5 days - 4 weeks | 0 | 0 | 0 |
| CCN[C@@H](C)Cc1cccc(C(F)(F)F)c1 [DEXFENFLURAMINE] | 0 | 0 | 0 | 0 | 1 | 0 | 0 | 0 | 0 | 0 | 0 | 4 years | 0 | 0 | 0 |
| O=[As](O)(O)c1ccc(NCCNc2ccc([As](=O)(O)O)cc2)cc1 [DIFETARSONE] | 6 | 2 | 0 | 2 | 0 | 0 | 0 | 0 | 1 | 0 | 2 | 2 days - 3 weeks | 0 | 0 | 0 |
| CC(=O)O[C@@]12CO[C@@H]1C[C@H](O)[C@@]1(C)C(=O)[C@H](O)C3=C(C)[C@@H](OC(=O)[C@H](O)[C@@H](NC(=O)OC(C)(C)C)c4ccccc4)C[C@@](O)([C@@H](OC(=O)c4ccccc4)[C@H]21)C3(C)C.O.O.O [DOCETAXEL] | 20 | 4 | 0 | 1 | 0 | 0 | 1 | 0 | 3 | 0 | 2 | 3 days - 8 days | 14.3 | 0 | 0 |
| O=c1[nH]c2ccccc2n1CCCN1CCC(n2c(=O)[nH]c3cc(Cl)ccc32)CC1 [DOMPERIDONE] | 0 | 1 | 0 | 0 | 0 | 0 | 0 | 0 | 0 | 0 | 1 | < 1 week | 0 | 0 | 0 |
| CN1c2c(oc(=O)n(-c3ccccn3)c2=O)-c2ccccc2S1(=O)=O [DROXICAM] | 0 | 7 | 0 | 6 | 0 | 0 | 0 | 1 | 0 | 0 | 4 | 10 days - 7 weeks | > 0 | 0 | 0 |
| CS[C@H]1SC[C@H]2C(=O)N(C)[C@@H](C(C)C)C(=O)OC[C@@H](NC(=O)c3cnc4ccccc4n3)C(=O)N[C@@H](C)C(=O)N(C)[C@@H]1C(=O)N(C)[C@@H](C(C)C)C(=O)OC[C@@H](NC(=O)c1cnc3ccccc3n1)C(=O)N[C@@H](C)C(=O)N2C [ECHINOMYCIN] | 29.4 | 4 | 0 | 0 | 0 | 0 | 1 | 0 | 8 | 0 | 3 | 4 days - 19 days | 4.8 | 0 | 0 |
